Tests used:
[1] = test system: weed plants such as Digitaria sanguinalis, Echinochloa crus-galli, Setaria faberi, Setaria viridis, Sorghum halepense, Abutilon theophrasti, Amaranthum …; assay: Pre-emergence effect on weeds (greenhouse pot test); format: in vivo, monocotyledonous and dicotyledonous weed plants; settings: application rate of 1 kg or less of active substance per hectare; scored visually after 3 to 4 weeks by comparison with untreated controls
Text: Seeds or rhizome pieces of monocotyledonous and dicotyledonous weed plants are placed in sandy loam soil in plastic pots and covered with soil. The compounds according to the invention which are formulated in the form of wettable powders or emulsion concentrates are then applied to the surface of the soil cover in the form of aqueous suspensions or emulsions at an application rate of 600 to 800 l of water/ha (converted), in various dosages.
After the treatment, the pots are placed in a greenhouse and kept under good growth conditions for the weeds. After the test plants have emerged, the damage to the plants or the negative effect on the emergence is scored visually after a test period of 3 to 4 weeks by comparison with untreated controls. As shown by the test results, compounds according to the invention have good herbicidal pre-emergence activity against a broad spectrum of weed grasses and broad-leafed weeds.

[2] = test system: harmful plants such as Digitaria sanguinalis, Echinochloa crus-galli, Setaria faberi, Setaria viridis, Sorghum halepense, Abutilon theophrasti, Amaranthum …; assay: Post-emergence effect on weeds (greenhouse pot test); format: in vivo, monocotyledonous and dicotyledonous weeds; settings: application rate of 1 kg and less of active substance per hectare; treated at three-leaf stage; scored visually after about 3 to 4 weeks by comparison with untreated controls
Description: Seeds or rhizome pieces of monocotyledonous and dicotyledonous weeds are placed in sandy loam soil in plastic pots, covered with soil and grown in a greenhouse under good growth conditions. Three weeks after sowing, the test plants are treated at the three-leaf stage. The compounds according to the invention which were formulated as wettable powders or emulsion concentrates are sprayed, at various dosages, onto the green parts of the plants at an application rate of 600 to 800 l of water/ha (converted). After the test plants have remained in the greenhouse for about 3 to 4 weeks under optimum growth conditions, the effect of the preparations is scored visually by comparison with untreated controls. The agents according to the invention also have good herbicidal activity post-emergence against a broad spectrum of economically important weed grasses and broad-leafed weeds.

Cc1nc(N)nc(NC2CCN(c3cccc(F)c3)C2=O)n1 (stereo not shown) [Example A1]
herbicidal activity pre-emergence [1]: very good herbicidal activity | herbicidal activity post-emergence [2]: very good herbicidal activity

Cc1nc(N)nc(NC2CCN(c3ccccc3)C2=O)n1 (stereo not shown) [Example A2]
herbicidal activity pre-emergence [1]: very good herbicidal activity | herbicidal activity post-emergence [2]: very good herbicidal activity

Cc1nc(N)nc(NC2CCN(c3cccc(C(F)(F)F)c3)C2=O)n1 (stereo not shown) [Example A3]
herbicidal activity pre-emergence [1]: very good herbicidal activity | herbicidal activity post-emergence [2]: very good herbicidal activity

Cc1cccc(N2CCC(Nc3nc(C)nc(N)n3)C2=O)c1 (stereo not shown) [Example A4]
herbicidal activity pre-emergence [1]: very good herbicidal activity | herbicidal activity post-emergence [2]: very good herbicidal activity

Cc1cc(C)cc(N2CCC(Nc3nc(C)nc(N)n3)C2=O)c1 (stereo not shown) [Example A5]
herbicidal activity pre-emergence [1]: very good herbicidal activity | herbicidal activity post-emergence [2]: very good herbicidal activity

Cc1nc(N)nc(NC2CCN(c3ccc(F)c(C)c3)C2=O)n1 (stereo not shown) [Example A6]
herbicidal activity pre-emergence [1]: very good herbicidal activity | herbicidal activity post-emergence [2]: very good herbicidal activity

COc1cccc(N2CCC(Nc3nc(C)nc(N)n3)C2=O)c1 (stereo not shown) [Example A7]
herbicidal activity pre-emergence [1]: very good herbicidal activity | herbicidal activity post-emergence [2]: very good herbicidal activity

Cc1nc(N)nc(NC2CCN(c3cccc(OC(F)(F)F)c3)C2=O)n1 (stereo not shown) [Example A8]
herbicidal activity pre-emergence [1]: very good herbicidal activity | herbicidal activity post-emergence [2]: very good herbicidal activity

Cc1nc(N)nc(NC2CCN(c3cccc(Cl)c3)C2=O)n1 (stereo not shown) [Example A9]
herbicidal activity pre-emergence [1]: very good herbicidal activity | herbicidal activity post-emergence [2]: very good herbicidal activity

CC(F)c1nc(N)nc(NC2CCN(c3cccc(F)c3)C2=O)n1 (stereo not shown) [Example A10]
herbicidal activity pre-emergence [1]: very good herbicidal activity | herbicidal activity post-emergence [2]: very good herbicidal activity

CC(F)c1nc(N)nc(NC2CCN(c3ccccc3)C2=O)n1 (stereo not shown) [Example A11]
herbicidal activity pre-emergence [1]: very good herbicidal activity | herbicidal activity post-emergence [2]: very good herbicidal activity

CC(F)c1nc(N)nc(NC2CCN(c3cccc(C(F)(F)F)c3)C2=O)n1 (stereo not shown) [Example A12]
herbicidal activity pre-emergence [1]: very good herbicidal activity | herbicidal activity post-emergence [2]: very good herbicidal activity

Cc1cccc(N2CCC(Nc3nc(N)nc(C(C)F)n3)C2=O)c1 (stereo not shown) [Example A13]
herbicidal activity pre-emergence [1]: very good herbicidal activity | herbicidal activity post-emergence [2]: very good herbicidal activity

Cc1cc(C)cc(N2CCC(Nc3nc(N)nc(C(C)F)n3)C2=O)c1 (stereo not shown) [Example A14]
herbicidal activity pre-emergence [1]: very good herbicidal activity | herbicidal activity post-emergence [2]: very good herbicidal activity

Cc1cc(N2CCC(Nc3nc(N)nc(C(C)F)n3)C2=O)ccc1F (stereo not shown) [Example A15]
herbicidal activity pre-emergence [1]: very good herbicidal activity | herbicidal activity post-emergence [2]: very good herbicidal activity

COc1cccc(N2CCC(Nc3nc(N)nc(C(C)F)n3)C2=O)c1 (stereo not shown) [Example A16]
herbicidal activity pre-emergence [1]: very good herbicidal activity | herbicidal activity post-emergence [2]: very good herbicidal activity

CC(F)c1nc(N)nc(NC2CCN(c3cccc(OC(F)(F)F)c3)C2=O)n1 (stereo not shown) [Example A17]
herbicidal activity pre-emergence [1]: very good herbicidal activity | herbicidal activity post-emergence [2]: very good herbicidal activity

CC(F)c1nc(N)nc(NC2CCN(c3cccc(Cl)c3)C2=O)n1 (stereo not shown) [Example A18]
herbicidal activity pre-emergence [1]: very good herbicidal activity | herbicidal activity post-emergence [2]: very good herbicidal activity

CC(C)c1nc(N)nc(NC2CCN(c3cccc(F)c3)C2=O)n1 (stereo not shown) [Example A19]
herbicidal activity pre-emergence [1]: very good herbicidal activity | herbicidal activity post-emergence [2]: very good herbicidal activity

CC(C)c1nc(N)nc(NC2CCN(c3cccc(C(F)(F)F)c3)C2=O)n1 (stereo not shown) [Example A21]
herbicidal activity pre-emergence [1]: very good herbicidal activity | herbicidal activity post-emergence [2]: very good herbicidal activity

Cc1cccc(N2CCC(Nc3nc(N)nc(C(C)C)n3)C2=O)c1 (stereo not shown) [Example A22]
herbicidal activity pre-emergence [1]: very good herbicidal activity | herbicidal activity post-emergence [2]: very good herbicidal activity

Cc1cc(C)cc(N2CCC(Nc3nc(N)nc(C(C)C)n3)C2=O)c1 (stereo not shown) [Example A23]
herbicidal activity pre-emergence [1]: very good herbicidal activity | herbicidal activity post-emergence [2]: very good herbicidal activity

Cc1cc(N2CCC(Nc3nc(N)nc(C(C)C)n3)C2=O)ccc1F (stereo not shown) [Example A24]
herbicidal activity pre-emergence [1]: very good herbicidal activity | herbicidal activity post-emergence [2]: very good herbicidal activity

COc1cccc(N2CCC(Nc3nc(N)nc(C(C)C)n3)C2=O)c1 (stereo not shown) [Example A25]
herbicidal activity pre-emergence [1]: very good herbicidal activity | herbicidal activity post-emergence [2]: very good herbicidal activity

CC(C)c1nc(N)nc(NC2CCN(c3cccc(OC(F)(F)F)c3)C2=O)n1 (stereo not shown) [Example A26]
herbicidal activity pre-emergence [1]: very good herbicidal activity | herbicidal activity post-emergence [2]: very good herbicidal activity

CC(C)c1nc(N)nc(NC2CCN(c3cccc(Cl)c3)C2=O)n1 (stereo not shown) [Example A27]
herbicidal activity pre-emergence [1]: very good herbicidal activity | herbicidal activity post-emergence [2]: very good herbicidal activity

CC(C)(F)c1nc(N)nc(NC2CCN(c3cccc(F)c3)C2=O)n1 (stereo not shown) [Example A28]
herbicidal activity pre-emergence [1]: very good herbicidal activity | herbicidal activity post-emergence [2]: very good herbicidal activity

Cc1cc(N2CCC(Nc3nc(N)nc(C(C)(C)F)n3)C2=O)ccc1F (stereo not shown) [Example A29]
herbicidal activity pre-emergence [1]: very good herbicidal activity | herbicidal activity post-emergence [2]: very good herbicidal activity

COc1cccc(N2CCC(Nc3nc(N)nc(C(C)(C)F)n3)C2=O)c1 (stereo not shown) [Example A30]
herbicidal activity pre-emergence [1]: very good herbicidal activity | herbicidal activity post-emergence [2]: very good herbicidal activity

CC(C)(F)c1nc(N)nc(NC2CCN(c3cccc(OC(F)(F)F)c3)C2=O)n1 (stereo not shown) [Example A31]
herbicidal activity pre-emergence [1]: very good herbicidal activity | herbicidal activity post-emergence [2]: very good herbicidal activity

CC(C)(F)c1nc(N)nc(NC2CCN(c3cccc(C(F)(F)F)c3)C2=O)n1 (stereo not shown) [Example A32]
herbicidal activity pre-emergence [1]: very good herbicidal activity | herbicidal activity post-emergence [2]: very good herbicidal activity

Cc1cccc(N2CCC(Nc3nc(N)nc(C(C)(C)F)n3)C2=O)c1 (stereo not shown) [Example A33]
herbicidal activity pre-emergence [1]: very good herbicidal activity | herbicidal activity post-emergence [2]: very good herbicidal activity

Cc1cc(C)cc(N2CCC(Nc3nc(N)nc(C(C)(C)F)n3)C2=O)c1 (stereo not shown) [Example A34]
herbicidal activity pre-emergence [1]: very good herbicidal activity | herbicidal activity post-emergence [2]: very good herbicidal activity

CC(C)(F)c1nc(N)nc(NC2CCN(c3ccccc3)C2=O)n1 (stereo not shown) [Example A35]
herbicidal activity pre-emergence [1]: very good herbicidal activity | herbicidal activity post-emergence [2]: very good herbicidal activity

CC(C)(F)c1nc(N)nc(NC2CCN(c3cccc(Cl)c3)C2=O)n1 (stereo not shown) [Example A36]
herbicidal activity pre-emergence [1]: very good herbicidal activity | herbicidal activity post-emergence [2]: very good herbicidal activity

From patent US20030171218A1, “Substituted 3-heteroaryl(amino- or oxy)pyrrolidin-2-ones, their preparation and use as herbicides or plant growth regulators” (priority 2001, published 2003)
